Results published in ChEMBL document CHEMBL1148013, “Synthesis, biological evaluation and molecular modeling studies of arylidene-thiazolidinediones with potential hypoglycemic and hypolipidemic activities” (2007).

What was measured:
Assay type in all cases: functional
Design in all cases: scale not given: the % may be the effect or the level left
[1] = tested on: Mus musculus; assay: Reduction in plasma glucose level in alloxan-induced diabetic mouse at 30 mg/kg/day, po after 15 days relative to control
[2] = tested on: Mus musculus; assay: Reduction in plasma glucose level in alloxan-induced diabetic mouse at 5 mg/kg/day, po after 15 days relative to control
[3] = tested on: Mus musculus; assay: Reduction in plasma triglyceride level in alloxan-induced diabetic mouse at 10 mg/kg/day, po after 15 days relative to control
[4] = tested on: Mus musculus; assay: Reduction in plasma glucose level in alloxan-induced diabetic mouse at 10 mg/kg/day, po after 15 days relative to control
[5] = tested on: Mus musculus; assay: Reduction in plasma triglyceride level in alloxan-induced diabetic mouse at 30 mg/kg/day, po after 15 days relative to control
[6] = tested on: Mus musculus; assay: Reduction in plasma triglyceride level in alloxan-induced diabetic mouse at 5 mg/kg/day, po after 15 days relative to control
[7] = tested on: Mus musculus; assay: Reduction in plasma glucose level in alloxan-induced diabetic mouse at 40 mg/kg/day, po after 15 days relative to control
[8] = tested on: Mus musculus; assay: Reduction in plasma glucose level in alloxan-induced diabetic mouse at 20 mg/kg/day, po after 15 days relative to control
[9] = tested on: Mus musculus; assay: Reduction in plasma triglyceride level in alloxan-induced diabetic mouse at 20 mg/kg/day, po after 15 days relative to control
[10] = tested on: Mus musculus; assay: Reduction in plasma triglyceride level in alloxan-induced diabetic mouse at 40 mg/kg/day, po after 15 days relative to control

SMILES | Activity [1] [%] | Activity [2] [%] | Activity [3] [%] | Activity [4] [%] | Activity [5] [%] | Activity [6] [%] | Activity [7] [%] | Activity [8] [%] | Activity [9] [%] | Activity [10] [%]
COc1ccc(/C=C2\SC(=O)N(Cc3ccc(C)cc3)C2=O)cc1 | 50.8 | 27.2 | 37.6 | 20.6 | 58.8 | 32.2 |  |  |  | 
COc1ccc(/C=C2\SC(=O)N(Cc3ccc(C)cc3)C2=O)c(OC)c1 | 34.6 |  | 40 | 21.8 | 46.5 |  | 20.1 |  |  | 
Cc1ccc(CN2C(=O)S/C(=C\c3ccc(O)cc3)C2=O)cc1 | 37.3 |  |  | 19.9 |  |  | 37.2 |  |  | 
Cc1ccc(CN2C(=O)S/C(=C\c3ccc(F)cc3)C2=O)cc1 | 13.5 |  |  |  |  |  |  |  |  | 
Cc1ccc(CN2C(=O)S/C(=C\c3ccccc3Cl)C2=O)cc1 | 43.3 |  | 14.8 | 19.2 | 26 |  |  | 47 | 20 | 
Cc1ccc(CN2C(=O)S/C(=C\c3cccc(Br)c3)C2=O)cc1 |  |  | 17.6 | 21.3 |  |  |  |  |  | 
Cc1ccc(CN2C(=O)S/C(=C\c3ccc(N(C)C)cc3)C2=O)cc1 | 40.8 |  |  | 14.9 | 44.1 |  |  | 35.8 | 17.4 | 
Cc1ccc(CN2C(=O)S/C(=C\c3ccc(Cl)cc3)C2=O)cc1 | 22.8 |  |  | 18.7 | 48 |  | 31.5 |  |  | 27.1
Cc1ccc(/C=C2\SC(=O)N(Cc3ccc(C)cc3)C2=O)cc1 |  |  | 41.7 | 16.3 |  |  |  |  |  | 
Cc1ccc(CN2C(=O)S/C(=C\c3ccc([N+](=O)[O-])cc3)C2=O)cc1 | 11.42 |  |  |  | 7.1 |  |  |  |  | 
CN(CCOc1ccc(CC2SC(=O)NC2=O)cc1)c1ccccn1 (stereo not drawn) [ROSIGLITAZONE] | 11.6 | 26.3 | 43.3 | 36.7 | 6.4 | 15.9 |  |  |  | 
